The values that follow come from PMC11680018, “Study of Cytotoxicity of Spiro-Fused [3-Azabicyclo[3.1.0]hexane]oxindoles and Cyclopropa[a]pyrrolizidine-oxindoles Against Tumor Cell Lines” (Pharmaceuticals, 2024).

Assay [1] has as its system human erythroleukemia (K562) cell line. The assay is described as follows: MTS cell proliferation assay, K562. In kind it is cell-based. The note with it: for IC50: Homo sapiens, MTS; for SI (selectivity index) K562: ratio of cytotoxicity PBMC / K562, calculated at 72 h.
The subject of assay [2] is cervical carcinoma (HeLa) cell line. Description: MTS cell proliferation assay, HeLa. In kind it is cell-based, human. To be noted: for IC50: Homo sapiens, HeLa, MTS; for SI (selectivity index) HeLa: ratio of cytotoxicity PBMC / HeLa, calculated at 72 h.
For assay [3], the system named is acute T cell leukemia (Jurkat) cell line. The assay is described as follows: MTS cell proliferation assay, Jurkat. The assay is classed as cell-based, human. The note with it: for IC50: Homo sapiens, Jurkat, MTS; for SI (selectivity index) Jurkat: ratio of cytotoxicity PBMC / Jurkat, calculated at 72 h. Here is the method:
(§1) Cancer cell lines are valuable in vitro model systems that are widely used in cancer research and drug discovery. Their use is mainly linked to their possibility to provide for experimental purposes an unlimited source of biological material. Here, the 24 and 72 h in vitro MTS assay was used to determine the antiproliferative activity of synthesized spiro-fused cyclopropa[a]pyrrolizidine-2,3′-oxindoles and [3-azabicyclo[3.1.0]hexane]-oxindoles against human erythroleukemia (K562), acute T cell leukemia (Jurkat), cervical carcinoma (HeLa), melanoma (Sk-mel-2), breast cancer adenocarcinoma (MCF-7) as well as mouse colon carcinoma (CT26) cell lines. […] The full results of these investigations are presented in the Supporting Information Figures S1–S6. […] An evaluation of the cytotoxicity of the selected compounds towards normal cells (peripheral blood mononuclear cells) was performed additionally to understand their respective relative selectivities. The selectivity index was obtained using the ratio of measured cytotoxicity between the PBMC cells and each of the cancer cell lines, and the results are presented in Table 3.
(§2) The human erythroleukemia (K-562), cervical carcinoma (HeLa) as well as mouse colon carcinoma (CT26) cell lines were obtained from the Bank of Cell Cultures of the Institute of Cytology of the Russian Academy of Sciences; the human melanoma (Sk-mel-2) cell line was obtained from the Bank of Cell Cultures of the Institute of Cytology and Genetics, Siberian Branch of the Russian Academy of Sciences. The acute T cell leukemia (Jurkat) cell line was obtained from the Bank of Cell Cultures of the Institute of Immunology of the Russian Academy of Medical Sciences. The peripheral blood mononuclear cells (PBMC) were isolated from the blood of healthy donors. K-562, Jurkat, MCF-7, PBMC and CT26 cells were grown on RPMI medium (Hyclone, GE Healthcare Life Sciences, Logan, UT, USA) supplemented with 10% (v/v) fetal bovine serum (Hyclone, GE Healthcare Life Sciences, Logan, UT, USA) and gentamicin (Sigma-Aldrich, St. Louis, MO, USA) at 37 °C in a humidified atmosphere with 5% CO2. HeLa and Sk-mel-2 cells were cultured with the same supplements and conditions in DMEM medium (Hyclone, GE Healthcare Life Sciences, Logan, UT, USA).
(§3) To evaluate the in vitro toxicity of the compounds synthesized, cells were seeded into 96-well plates at a density of 5 × 10^3 cells per well. On the next day, the tested compounds were added to the wells at concentrations ranging from 1 to 30 μg/mL, followed by incubation for 1 and 3 days. Cell proliferation was determined by adding 20 μL of MTS reagent (BioVision, Milpitas, CA, USA) stock solution per well. The plates were incubated for 2 h at 37 °C in a humidified, 5% CO2 atmosphere. The plates were then read at 495 nm using a plate spectrophotometer (Multiskan GO, Thermo Fisher Scientific, Waltham, MA, USA). All samples were measured in triplicate.

Assay [4] deals with breast cancer adenocarcinoma (MCF-7) cell line. The assay is described as follows: MTS cell proliferation assay, MCF-7. The assay is classed as cell-based, human. To be noted: for IC50: Homo sapiens, MTS; for SI (selectivity index) MCF-7: ratio of cytotoxicity PBMC / MCF-7, calculated at 72 h. The procedure:
as §1, §2, §3

The subject of assay [5] is melanoma (Sk-mel-2) cell line. Description: MTS cell proliferation assay, Sk-mel-2. The assay is classed as cell-based, human. The note with it: for IC50: Homo sapiens, MTS; for SI (selectivity index) Sk-mel-2: ratio of cytotoxicity PBMC / Sk-mel-2, calculated at 72 h.
Assay [6] concerns mouse colon carcinoma (CT26) cell line. The assay is described as follows: MTS cell proliferation assay, CT26. To be noted: for IC50: Mus musculus, MTS; for SI (selectivity index) CT26: ratio of cytotoxicity PBMC / CT26, calculated at 72 h. In kind it is cell-based.
Assay [7] concerns peripheral blood mononuclear cells (PBMC). Description: MTS cytotoxicity towards normal cells, PBMC. The assay is classed as cell-based. The note with it: Homo sapiens. Here is the method: as §1, §2, §3
Assay [8] concerns HeLa cells actin cytoskeleton. The assay is described as follows: Actin cytoskeleton staining, confocal microscopy, HeLa. The assay is classed as cell-based, human. The note with it: 10 μg/mL, 24 h; for HeLa cells with filopodia-like deformations: control cells 93%, lowest value over the compounds; for HeLa cells with granular actin distributed diffusely in the cytoplasm (stress fibers disappeared): maximum over the compounds. The procedure:
It was found using confocal microscopy that incubation with spiro-fused [3-azabicyclo[3.1.0]hexane]oxindoles 4, 8, 17, 18, 22, 24 and cyclopropa[a]pyrrolizidine-2,3′-oxindole 2 led to significant changes in the HeLa cells’ actin cytoskeleton structure leading to the disappearance of stress fibers (granular actin was distributed diffusely in the cytoplasm in up to 38% of treated cells) and changes in the number of filopodia-like deformations (reduced from 93% in control cells to 64% after treatment). The impact on the Sk-mel-2 cells’ actin cytoskeleton structure was even greater: granular actin was distributed diffusely in the cytoplasm in up to 90% of treated cells while the number of filopodia-like deformations was reduced by up to 23%. Such changes in the cytoskeleton may indicate a change in the motor activity of cells, which may indicate a decrease in the ability of tumor cells to metastasize.
HeLa cells were seeded at a density of 2 × 10^5 cells per dish onto a petri dish with cover slips and incubated for 24 h. After that, cells were treated with chosen compounds (10 μg/mL) for 24 h. The medium was removed and cells were fixed with 4% paraformaldehyde (Sigma-Aldrich, St. Louis, MO, USA), washed three times with PBS, and permeabilized with 0.3% Triton-X100 (Sigma-Aldrich, St. Louis, MO, USA). The cells were rinsed three times with PBS. Actin filaments (microfilaments) were stained with rhodamine–phalloidin (Invitrogen, Carlsbad, CA, USA) at 37 °C for 15 min. The samples were rinsed three times with PBS, followed by embedding in Fluoroshield medium (Sigma-Aldrich, St. Louis, MO, USA). Cells were imaged using an Axio Observer Z1 confocal microscope (Carl Zeiss MicroImaging GmbH, Jena, Germany). In each experiment, at least 30 cells were imaged. Images were analyzed by a pathologist blinded to the treatment mode used for each group using ImageJ software, 1.52v.

Assay [9] deals with K562, Jurkat, HeLa, Sk-mel-2, MCF-7 and CT26 cell lines. Description: MTS cell proliferation assay, panel of cell lines (summary statements). The assay is classed as cell-based. To be noted: 72 h; range over four cell lines and compounds; read-out: IC50 against the Jurkat, K-562, HeLa and Sk-mel-2 cell lines. Here is the method:
as §1, §2, §3
Background: Tetrazolium dyes change colour on reduction, which living cells bring about.

[10] abbreviates: read-out: IC50 K562 24 h, K562, 24 h.
The mark [11] stands for this setting: K562, 72 h, read-out: IC50 K562 72 h.
The mark [12] stands for this setting: read-out: IC50 Jurkat 24 h, 24 h.
Setting [13] is: 72 h, read-out: IC50 Jurkat 72 h.
Where [14] appears, read: MCF7, read-out: IC50 MCF-7 24 h, MCF-7, 24 h.
Where [15] appears, read: MCF7, MCF-7, 72 h, read-out: IC50 MCF-7 72 h.
Setting [16] is: read-out: IC50 Sk-mel-2 24 h, Sk-mel-2, 24 h.
Setting [17] is: Sk-mel-2, 72 h, read-out: IC50 Sk-mel-2 72 h.
Where [18] appears, read: read-out: IC50 CT26 24 h, CT26, 24 h.
The mark [19] stands for this setting: CT26, 72 h, read-out: IC50 CT26 72 h.

Molecules are shown by their SMILES. Where two headings read alike, the source gives them in different places. Bounds are passed on as bounds.

Turning to `CC[C@H](C)C1NC2(C(=O)Nc3ccccc32)C2(c3ccccc3)C(C(=O)OC)C12c1ccccc1` (stereo partly shown) [Compound 4], the IC50 in assay [1] (setting [10]) was 32 ± 2 µM; in [1] (setting [11]), 6 ± 1 µM; in [2] (read-out: IC50 HeLa 24 h, 24 h), greater than 40 µM; in assay [2] (72 h, read-out: IC50 HeLa 72 h), 9 ± 1 µM; in assay [3] (setting [12]), 11 ± 1 µM; in [3] (setting [13]), 4 ± 1 µM. For the same molecule, the IC50 was greater than 40 µM in [4] (setting [14]); greater than 40 µM in [4] (setting [15]); greater than 40 µM in [5] (setting [16]); 9 ± 1 µM in assay [5] (setting [17]); greater than 40 µM in assay [6] (setting [18]); 21 ± 2 µM in assay [6] (setting [19]). Further, the IC50 in [7] (72 h, read-out: IC50 PBMC 72 h) is 92 ± 9 µM; in assay [7] (read-out: IC50 PBMC 24 h, 24 h) it was 174 ± 17 µM; in assay [9], 2 to 10 µM. Further, the “SI (selectivity index) K562” value in assay [1] is 14. Further, in assay [2], the “SI (selectivity index) HeLa” value is recorded as 11. Also, the “SI (selectivity index) Jurkat” value in assay [3] is 22. Further, the “SI (selectivity index) MCF-7” value in assay [4] is on record as 2. The “SI (selectivity index) Sk-mel-2” value in assay [5] is given as 11. In addition, the “SI (selectivity index) CT26” value in assay [6] is listed as 4. Besides, the “HeLa cells with filopodia-like deformations” value in [8] is on record as no less than 64%. Further, the “HeLa cells with granular actin distributed diffusely in the cytoplasm (stress fibers disappeared)” value in assay [8] is listed as “up to 38%”.

For the molecule `CSCCC1NC2(C(=O)Nc3ccccc32)C2(c3ccccc3)C(c3ccccc3)C12c1ccccc1` (stereo not shown) [Compound 24], the IC50 in assay [1] (setting [10]) was greater than 40 µM; in [1] (setting [11]), 10 ± 1 µM; in assay [2] (read-out: IC50 HeLa 24 h, 24 h), 20 ± 2 µM; in [2] (72 h, read-out: IC50 HeLa 72 h) it was 8 ± 1 µM; in [3] (setting [12]), 22 ± 2 µM; in assay [3] (setting [13]) it was 4 ± 1 µM. Also, the IC50 is greater than 40 µM in [4] (setting [14]); greater than 40 µM in assay [4] (setting [15]); greater than 40 µM in [5] (setting [16]); 8 ± 1 µM in [5] (setting [17]); greater than 40 µM in [6] (setting [18]); greater than 40 µM in assay [6] (setting [19]). For the same molecule, the IC50 in assay [7] (72 h, read-out: IC50 PBMC 72 h) was 92 ± 11 µM; in assay [7] (read-out: IC50 PBMC 24 h, 24 h), 113 ± 14 µM; in assay [9], 2 to 10 µM. Moreover, the “SI (selectivity index) K562” value in assay [1] is on record as 9. The “SI (selectivity index) HeLa” value in [2] is 12. For the same molecule, the “SI (selectivity index) Jurkat” value in assay [3] is on record as 23. The “SI (selectivity index) MCF-7” value in assay [4] is on record as 1. Also, the “SI (selectivity index) Sk-mel-2” value in assay [5] is reported as 12. Besides, the “SI (selectivity index) CT26” value in assay [6] is listed as 1. Besides, the “HeLa cells with filopodia-like deformations” value in assay [8] was no less than 64%. Further, the “HeLa cells with granular actin distributed diffusely in the cytoplasm (stress fibers disappeared)” value in assay [8] is listed as “up to 38%”.

Broadly, the IC50 is the concentration that inhibits the measured activity by half.
